Columns and labels:
Assay type in all cases: in vivo
Brassica napus (BRSNW) [1] = assay: Post-emergence effects on crop plants, section F (Table F5); settings: application rate 80 g/ha
Description: (§1) Seeds of mono- and dicotyledonous weed plants and crop plants were sown, in plastic or organic planting pots, in sandy loam, covered with soil and grown in a greenhouse under controlled growth conditions. 2 to 3 weeks after sowing, the test plants were sprayed in the single-leaf stage. The compounds according to the invention, formulated in form of wettable powders (WP) or as emulsifiable concentrates (EC), were sprayed onto the green plant parts as aqueous suspension or emulsion, with the addition of 0.5% of an additive, at an application rate of 600 l of water/ha (converted). The test plants were placed in the greenhouse for ca. 3 weeks under optimum growth conditions, and then the effect of the preparations was assessed visually in comparison with untreated controls (herbicidal effect in percent (%): 100% effect=plants have died off, 0% effect=as control plants). Tables F1 to F4 below show the effects of selected compounds of the general formula (I) according to Table 1 on various crop plants and an application rate corresponding to 320 g/ha or below obtained by the experimental procedure mentioned above.

[2] = system: Polygonum convolvulus (POLCO); assay: Herbicidal pre-emergence action, section C (Table C7); settings: Fallopia convolvulus, pre-emergence, 504 h; application rate 320 g/ha; visual grading after ca. 3 weeks; read-out: pre-emergence activity against POLCO in %
Description: (§2) Seeds of mono- and dicotyledonous weed plants and crop plants were sown, in plastic or organic planting pots, in sandy loam and covered with soil. The compounds according to the invention, formulated in the form of wettable powders (WP) or as emulsifiable concentrates (EC), were applied to the surface of the covering soil as aqueous suspension or emulsion, with the addition of 0.5% of an additive, at an application rate of 600 l of water/ha (converted). Following treatment, the pots were placed in a greenhouse and kept under optimum growth conditions for the test plants. The visual grading of the damage to the test plants was carried out after ca. 3 weeks in comparison to untreated controls (herbicidal effect in percent (%): 100% effect=plants have died off, 0% effect=as control plants).

Setaria viridis (SETVI) [3] = assay: Herbicidal pre-emergence action, section C (Table C8); settings: application rate 320 g/ha, visual grading after ca. 3 weeks
Description: as §2

[4] = system: Triticum aestivum (TRZAS); assay: Post-emergence effects on crop plants, section F (Table F2); settings: application rate 320 g/ha
Procedure, shortened: (§3)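 After sowing in sandy loam and 2–3 weeks' greenhouse growth, single-leaf plants received foliar sprays (WP or EC, 0.5% additive, 600 l/ha water, ≤320 g/ha). Around 3 weeks on, herbicidal effect was estimated by eye, 0% meaning like controls and 100% meaning plants died.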

[5] = system: Polygonum convolvulus (POLCO); assay: Herbicidal post-emergence action, section E (Table E7); settings: Fallopia convolvulus, 504 h, application rate 320 g/ha, visual assessment ca. 3 weeks after spraying, read-out: post-emergence activity against POLCO in %
Description: as §1, with “plants).” for “plants). Tables F1 to F4 below show the effects of selected compounds of the general formula (I) according to Table 1 on various crop plants and an application rate corresponding to 320 g/ha or below obtained by the experimental procedure mentioned above.”

[6] = system: Alopecurus myosuroides (ALOMY); assay: Herbicidal pre-emergence action, section C (Table C2); settings: Alopecurus myosuroides, pre-emergence, 504 h; application rate 320 g/ha; visual grading after ca. 3 weeks vs untreated controls; read-out: pre-emergence activity against ALOMY in %
Description: as §2

Oryza sativa (ORYZA) [7] = assay: Post-emergence effects on crop plants, section F (Table F3)
Description: as §1

[8] = system: Alopecurus myosuroides (ALOMY); assay: Herbicidal post-emergence action, section E (Table E2); settings: Alopecurus myosuroides, post-emergence, 504 h; application rate 320 g/ha; assessed visually after ca. 3 weeks; read-out: post-emergence activity against ALOMY in %
Description: as §1, with “plants).” for “plants). Tables F1 to F4 below show the effects of selected compounds of the general formula (I) according to Table 1 on various crop plants and an application rate corresponding to 320 g/ha or below obtained by the experimental procedure mentioned above.”

Zea mays (ZEAMX) [9] = assay: Post-emergence effects on crop plants, section F (Table F1); settings: application rate 320 g/ha
Procedure, shortened: as §3

Lolium rigidum (LOLRI) [10] = assay: Herbicidal pre-emergence action, section C (Table C5); settings: Lolium rigidum, pre-emergence, 504 h; application rate 320 g/ha; visual grading after ca. 3 weeks; read-out: pre-emergence activity against LOLRI in %
Description: as §2

[11] = system: Triticum aestivum (TRZAS); assay: Pre-emergence effects on crop plants, section D (Table D2); settings: visual grading after ca. 3 weeks
Procedure, shortened: (§4)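 After sowing in sandy loam and covering with soil, pots receive compound applied to the soil surface at rates up to 320 g/ha in 600 l water/ha containing 0.5% additive. Plants then grow under optimum greenhouse conditions. Percent herbicidal effect is rated visually at roughly 3 weeks against untreated pots.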

Glycine max (GLXMA) [12] = assay: Pre-emergence effects on crop plants, section D (Table D4); settings: application rate 320 g/ha; visual grading after ca. 3 weeks
Procedure, shortened: as §4

Oryza sativa (ORYZA) [13] = assay: Pre-emergence effects on crop plants, section D (Table D3); settings: visual grading after ca. 3 weeks
Description: (§5) Seeds of mono- and dicotyledonous weed plants and crop plants were sown, in plastic or organic planting pots, in sandy loam and covered with soil. The compounds according to the invention, formulated in the form of wettable powders (WP) or as emulsifiable concentrates (EC), were applied to the surface of the covering soil as aqueous suspension or emulsion, with the addition of 0.5% of an additive, at an application rate of 600 l of water/ha (converted).
(§6) Following treatment, the pots were placed in a greenhouse and kept under optimum growth conditions for the test plants. The visual grading of the damage to the test plants was carried out after ca. 3 weeks in comparison to untreated controls (herbicidal effect in percent (%): 100% effect=plants have died off, 0% effect=as control plants).
(§7) Tables D1 to D5 below show the effects of various compounds of the general formula (I) according to Table 1 on various crop plants and an application rate corresponding to 320 g/ha or below obtained by the experimental procedure mentioned above in Biological Examples, Section C.

Zea mays (ZEAMX) [14] = assay: Pre-emergence effects on crop plants, section D (Table D1); settings: visual grading after ca. 3 weeks
Procedure, shortened: as §4

[15] = system: Echinochloa crus-galli (ECHCG); assay: Herbicidal pre-emergence action, section C (Table C3); settings: application rate 320 g/ha, visual grading after ca. 3 weeks vs untreated controls
Description: as §2

Glycine max (GLXMA) [16] = assay: Post-emergence effects on crop plants, section F (Table F4)
Procedure, shortened: as §3

Brassica napus (BRSNW) [17] = assay: Pre-emergence effects on crop plants, section D (Table D5); settings: application rate 80 g/ha; visual grading after ca. 3 weeks
Description: as §5, §6, §7

Veronica persica (VERPE) = assay: Herbicidal post-emergence action, section E (Table E9); settings: Veronica persica, 504 h, application rate 320 g/ha, visual assessment ca. 3 weeks after spraying, read-out: post-emergence activity against VERPE in %
Description: as §1, with “plants).” for “plants). Tables F1 to F4 below show the effects of selected compounds of the general formula (I) according to Table 1 on various crop plants and an application rate corresponding to 320 g/ha or below obtained by the experimental procedure mentioned above.”

Stellaria media (STEME) = assay: Herbicidal pre-emergence action, section A (Table A9); settings: application rate 1280 g/ha
Procedure, shortened: (§8)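 Compounds are applied pre-emergence to the soil covering freshly sown seeds in sandy loam, as WP or EC in water with 0.5% additive at a spray volume of 600 l/ha. Plants grow in the greenhouse, and percent damage is rated visually after roughly 3 weeks relative to untreated controls.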

Setaria viridis (SETVI) [18] = assay: Herbicidal pre-emergence action, section A (Table A8); settings: application rate 320 g/ha
Procedure, shortened: as §8

[19] = system: Amaranthus retroflexus (AMARE); assay: Herbicidal pre-emergence action, section A (Table A11); settings: application rate 1280 g/ha
Procedure, shortened: as §8

Poa annua (POAAN) = assay: Herbicidal pre-emergence action, section A (Table A7); settings: application rate 320 g/ha; visual grading after ca. 3 weeks vs untreated controls
Procedure, shortened: as §8

Kochia scoparia (KCHSC) [20] = assay: Herbicidal pre-emergence action, section A (Table A4); settings: application rate 1280 g/ha; visual grading after ca. 3 weeks vs untreated controls
Procedure, shortened: as §8

[21] = system: Digitaria sanguinalis (DIGSA); assay: Herbicidal pre-emergence action, section C (Table C12); settings: application rate 320 g/ha; visual grading after ca. 3 weeks
Description: as §2

Kochia scoparia (KCHSC) [22] = assay: Herbicidal post-emergence action, section B (Table B4); settings: application rate 1280 g/ha; visual rating about 3 weeks after treatment vs untreated controls
Procedure, shortened: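 Percent effect, judged by eye against untreated controls (0% = like control, 100% = plants dead), was recorded about 3 weeks after a foliar spray. The spray, at 600 liters per hectare with 0.5% additive, was applied to one-leaf-stage plants grown in sandy loam.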

[23] = system: Digitaria sanguinalis (DIGSA); assay: Herbicidal pre-emergence action, section A (Table A12); settings: application rate 1280 g/ha
Procedure, shortened: as §8

[24] = system: Amaranthus retroflexus (AMARE); assay: Herbicidal pre-emergence action, section C (Table C11); settings: application rate 80 g/ha; visual grading after ca. 3 weeks
Description: as §2

Lolium rigidum (LOLRI) [25] = assay: Herbicidal pre-emergence action, section A (Table A5); settings: application rate 1280 g/ha; visual grading after ca. 3 weeks vs untreated controls
Procedure, shortened: as §8

Cc1cc2c(nc1-c1ccccc1F)N(C(=O)C1CC1)CS2 [Example I-018, cyclopropyl[5-(2-fluorophenyl)-6-methyl[1,3]thiazolo[4,5-b]pyridin-3(2H)-yl]methanone]
10%: crop plant damage (phytotoxicity) in % at 80 g/ha (Brassica napus (BRSNW) [1]; Brassica napus, 504 h, read-out: post-emergence activity against BRSNW in %) | percent crop plant damage (wheat, post-emergence) at 320 g/ha ([4]; Triticum aestivum, 504 h, read-out: post-emergence activity against TRZAS in %) | pre-emergence activity against TRZAS in % (crop plant damage) ([11]; application rate 80 g/ha) | pre-emergence activity against GLXMA in % (crop plant damage) (Glycine max (GLXMA) [12]) | pre-emergence activity against ORYZA in % (crop plant damage) (Oryza sativa (ORYZA) [13]; application rate 80 g/ha) | pre-emergence activity against BRSNW in % (crop plant damage) (Brassica napus (BRSNW) [17])
90%: pest or weed control at 320 g/ha [2] | pest or weed control at 320 g/ha [8] | pest or weed control at 320 g/ha (Veronica persica (VERPE))
0%: percent crop plant damage at 80 g/ha (Oryza sativa (ORYZA) [7]; Oryza sativa, 504 h, application rate 80 g/ha, read-out: post-emergence activity against ORYZA in %) | percent crop plant damage at 320 g/ha (Glycine max (GLXMA) [16]; Glycine max, 504 h, application rate 320 g/ha, read-out: post-emergence activity against GLXMA in %)
80%: pest or weed control at 320 g/ha [5]
20%: percent crop plant damage (phytotoxicity) on Zea mays, post-emergence at 320 g/ha (Zea mays (ZEAMX) [9]; Zea mays, 504 h, read-out: post-emergence activity against ZEAMX in %) | pre-emergence activity against ZEAMX in % (crop plant damage) (Zea mays (ZEAMX) [14]; application rate 80 g/ha)
100%: pest or weed control at 320 g/ha (Setaria viridis (SETVI) [3]; Setaria viridis, pre-emergence, 504 h, read-out: pre-emergence activity against SETVI in %) | pest or weed control at 320 g/ha [6] | pest or weed control at 320 g/ha (Lolium rigidum (LOLRI) [10]) | pest or weed control at 320 g/ha ([15]; Echinochloa crus-galli, pre-emergence, 504 h, read-out: pre-emergence activity against ECHCG in %)

COc1ccccc1-c1nc2c(cc1Br)SCN2B(N)N [Example I-087]
90%: pre-emergence activity against STEME in % (Stellaria media (STEME)) | pre-emergence activity against AMARE in % [19] | pre-emergence activity against KCHSC in % (Kochia scoparia (KCHSC) [20]) | pre-emergence activity against DIGSA in % [21] | post-emergence activity against KCHSC in % (Kochia scoparia (KCHSC) [22]) | pre-emergence activity against ECHCG in % [15] | pre-emergence activity against AMARE in % [24]
100%: pre-emergence activity against SETVI in % (Setaria viridis (SETVI) [18]) | pre-emergence activity against SETVI in % (Setaria viridis (SETVI) [3]) | pre-emergence activity against POAAN in % (Poa annua (POAAN)) | pre-emergence activity against DIGSA in % [23] | pre-emergence activity against LOLRI in % (Lolium rigidum (LOLRI) [25])
10%: pre-emergence activity against TRZAS in % (crop plant damage) ([11]; application rate 320 g/ha) | pre-emergence activity against ZEAMX in % (crop plant damage) (Zea mays (ZEAMX) [14]; application rate 320 g/ha)
0%: post-emergence activity against BRSNW in % (Brassica napus (BRSNW) [1]; crop plant damage) | post-emergence activity against TRZAS in % ([4]; crop plant damage) | post-emergence activity against ORYZA in % (Oryza sativa (ORYZA) [7]; crop plant damage, application rate 320 g/ha) | post-emergence activity against ZEAMX in % (Zea mays (ZEAMX) [9]; crop plant damage) | post-emergence activity against GLXMA in % (Glycine max (GLXMA) [16]; crop plant damage, application rate 80 g/ha)
20%: pre-emergence activity against GLXMA in % (crop plant damage) (Glycine max (GLXMA) [12]) | pre-emergence activity against ORYZA in % (crop plant damage) (Oryza sativa (ORYZA) [13]; application rate 320 g/ha) | pre-emergence activity against BRSNW in % (crop plant damage) (Brassica napus (BRSNW) [17])

Reference: patent publication US20240381872A1, “SUBSTITUTED 2,3-DIHYDRO[1,3]THIAZOLO[4,5-B]PYRIDINES, SALTS THEREOF AND THEIR USE AS HERBICIDALLY ACTIVE SUBSTANCES” (BAYER AKTIENGESELLSCHAFT, priority 2021, published 2024)
